Results as given in ChEMBL document CHEMBL3588819, “Antiviral Limonoids Including Khayanolides from the Trang Mangrove Plant Xylocarpus moluccensis” (J Nat Prod, 2015).

Each compound was assayed on Influenza A virus (assay: Antiviral activity against influenza A virus (A/Puerto Rico/8/34(H1N1)) infected in MDCK cells assessed as inhibition of virus-induced cytopathic effect incubated for 48 hrs by crystal violet staining based assay). Settings: A/Puerto Rico/8/1934(H1N1).
Assay type: functional, organism-based

Row | SMILES | IC50 [µM]
1 | COC(=O)C[C@@H]1[C@@]2(C)[C@H]3CC[C@]4(C)C(=C3[C@@]3(O)[C@@H](OC(C)=O)C(=O)[C@]1(C)C[C@@]23O)CC(=O)O[C@H]4c1ccoc1 | 77.1
2 | COC(=O)C[C@H]1[C@@]2(C)C[C@]3(O)[C@H](C(=O)[C@H]2OC(C)=O)C2=C4CC(=O)O[C@@H](c5ccoc5)[C@]4(C)CC[C@@H]2[C@]13C | 114
3 | COC(=O)C[C@H]1[C@@]2(C)C[C@]3(O)[C@H](C(=O)[C@H]2OC(C)=O)C2=C(CC[C@]4(C)C2=CC(=O)O[C@H]4c2ccoc2)[C@]13C | 122
4 | NC(=O)c1ncn([C@@H]2O[C@H](CO)[C@@H](O)[C@H]2O)n1 [RIBAVIRIN] | 186
